Test results: ChEMBL document CHEMBL1201862, “PubChem BioAssay data set” (2004)
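All cell lines were grown in 96-well plates and treated with compound for 48 hours. Abbreviation: GI50, concentration required for 50% inhibition of growth.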 The source made the active and inactive calls. No stated cut-off is given here; in the data, active = GI50 up to about 1.1 µM and inactive = higher.

Assays:
Assay in all cases: DTP human tumour cell line panel, 48 h
[1] = test system: Hs-578T
[2] = test system: CAKI-1
[3] = test system: MDA-MB-435
[4] = test system: SK-MEL-28
[5] = test system: SF-268
[6] = test system: HOP-92
[7] = test system: SNB-19
[8] = test system: SK-MEL-2
[9] = test system: MDA-N
[10] = test system: T47D
[11] = test system: OVCAR-5
[12] = test system: HCC 2998
[13] = test system: SK-OV-3
[14] = test system: NCI-H460
[15] = test system: MCF7
[16] = test system: MOLT-4
[17] = test system: SR
[18] = test system: IGROV-1
[19] = test system: MDA-MB-231
[20] = test system: HL-60

Structure (SMILES) | GI50 [1] | GI50 [2] | GI50 [3] | GI50 [4] | GI50 [5] | GI50 [6] | GI50 [7] | GI50 [8] | GI50 [9] | GI50 [10] | GI50 [11] | GI50 [12] | GI50 [13] | GI50 [14] | GI50 [15] | GI50 [16] | GI50 [17] | GI50 [18] | GI50 [19] | GI50 [20]
O=[N+]([O-])c1ccc2c(c1)/C(=N/N=C1c3ccccc3Cc3ccccc31)c1cc([N+](=O)[O-])cc([N+](=O)[O-])c1-2 | 2.86 µM (inactive) | 3.6 µM (inactive) | 1.79 µM (inactive) | 3.45 µM (inactive) | 2.51 µM (inactive) | 2.17 µM (inactive) | 7.33 µM (inactive) | 9.18 µM (inactive) | 3.36 µM (inactive) | 1.78 µM (inactive) | 2.75 µM (inactive) | 5.85 µM (inactive) | 14.2 µM (inactive) | 3.14 µM (inactive) | 1.65 µM (inactive) | 1.91 µM (inactive) | 4.61 µM (inactive) | 1.55 µM (inactive) | 2.62 µM (inactive) | 2.26 µM (inactive)
CC1=NN(C(=O)CC(=O)Nc2ccc(Cl)cc2)C(=O)C1/N=N\c1ccc(S(=O)(=O)c2ccc(/N=N/C3C(=O)N(C(=O)CC(=O)Nc4ccc(Cl)cc4)N=C3C)cc2)cc1 (stereo not given) | > 100 µM (inactive) | > 100 µM (inactive) | > 100 µM (inactive) | > 100 µM (inactive) | > 100 µM (inactive) | > 100 µM (inactive) | 61.5 µM (inactive) | 51.9 µM (inactive) | > 100 µM (inactive) | > 100 µM (inactive) | 42.3 µM (inactive) | > 100 µM (inactive) | > 100 µM (inactive) | > 100 µM (inactive) | > 100 µM (inactive) | > 100 µM (inactive) | > 100 µM (inactive) | > 100 µM (inactive) | 51.9 µM (inactive) | > 100 µM (inactive)
CCN(C)c1nc(N(C)CC)c2nc(N(C)CC)nc(N(C)CC)c2n1 | > 100 µM (inactive) | > 100 µM (inactive) | > 100 µM (inactive) | > 100 µM (inactive) | > 100 µM (inactive) | > 100 µM (inactive) | > 100 µM (inactive) | > 100 µM (inactive) | > 100 µM (inactive) | > 100 µM (inactive) | > 100 µM (inactive) | > 100 µM (inactive) | > 100 µM (inactive) | > 100 µM (inactive) | > 100 µM (inactive) | > 100 µM (inactive) | 26.5 µM (inactive) | > 100 µM (inactive) | > 100 µM (inactive) | > 100 µM (inactive)
C=C1CC(C)(COc2ccc3c(C)c(Cl)c(=O)oc3c2)OC1=O (stereo not given) | 3.11 µM (inactive) | 0.59 µM (active) | 2.97 µM (inactive) | 2.42 µM (inactive) | 3.52 µM (inactive) | 1.06 µM (active) | 12.9 µM (inactive) | 1.44 µM (inactive) | 0.762 µM (active) | 0.361 µM (active) | 4.23 µM (inactive) | 1.81 µM (inactive) | 4.88 µM (inactive) | 6.97 µM (inactive) | 1.24 µM (inactive) | 1.05 µM (active) | 0.865 µM (active) | 1.76 µM (inactive) | 3.53 µM (inactive) | 0.12 µM (active)
COc1ccc(OC)c2sc(N3C(=O)/C(=C/Cc4ccco4)N=C3c3ccccc3)nc12 | 42.2 µM (inactive) | 81.1 µM (inactive) | 19.4 µM (inactive) | 79.1 µM (inactive) | 34 µM (inactive) | 35.8 µM (inactive) | 47.3 µM (inactive) | 24.1 µM (inactive) | 19.6 µM (inactive) | 26 µM (inactive) | > 100 µM (inactive) | > 100 µM (inactive) | 83.4 µM (inactive) | 50.1 µM (inactive) | 17.7 µM (inactive) | 17.9 µM (inactive) | 19.4 µM (inactive) | 30.6 µM (inactive) | > 100 µM (inactive) | 18.1 µM (inactive)
CCOC1c2cc(OC)c(OC)cc2-c2ccc3ccccc3c2N1C (stereo not given) | 6.4 µM (inactive) | 34.1 µM (inactive) | 13.8 µM (inactive) | 13.4 µM (inactive) | 2.05 µM (inactive) | 21.9 µM (inactive) | 9.86 µM (inactive) | 13.9 µM (inactive) | 10.6 µM (inactive) | 4.84 µM (inactive) | 21.8 µM (inactive) | 14.1 µM (inactive) | 22 µM (inactive) | 12.2 µM (inactive) | 12.4 µM (inactive) | 4.43 µM (inactive) | 7.78 µM (inactive) | 19.2 µM (inactive) | 13.5 µM (inactive) | 44.1 µM (inactive)
N/C(=N\Nc1ccc(S(N)(=O)=O)cc1)c1cnccn1 | > 100 µM (inactive) | > 100 µM (inactive) | > 100 µM (inactive) | > 100 µM (inactive) | > 100 µM (inactive) | > 100 µM (inactive) | > 100 µM (inactive) | > 100 µM (inactive) | > 100 µM (inactive) | > 100 µM (inactive) | > 100 µM (inactive) | > 100 µM (inactive) | > 100 µM (inactive) | > 100 µM (inactive) | > 100 µM (inactive) | > 100 µM (inactive) | > 100 µM (inactive) | > 100 µM (inactive) | > 100 µM (inactive) | > 100 µM (inactive)
CC(NNC(=O)c1ccncc1)c1ccc(Cl)c(Cl)c1 (stereo not given) | 86.9 µM (inactive) | > 100 µM (inactive) | > 100 µM (inactive) | > 100 µM (inactive) | > 100 µM (inactive) | > 100 µM (inactive) | > 100 µM (inactive) | > 100 µM (inactive) | 95.3 µM (inactive) | 66.4 µM (inactive) | > 100 µM (inactive) | > 100 µM (inactive) | 19.6 µM (inactive) | > 100 µM (inactive) | > 100 µM (inactive) | 48.9 µM (inactive) | 60.8 µM (inactive) | > 100 µM (inactive) | > 100 µM (inactive) | 34.8 µM (inactive)
CCN(CCCl)c1cc(CN(C)C)cc(NC(=O)c2ccc(C(=O)Nc3cccc(CN(C)C)c3)cc2)c1 | 0.23 µM (active) | 32.6 µM (inactive) | 0.238 µM (active) | 2.07 µM (inactive) | 0.364 µM (active) | 0.512 µM (active) | 0.286 µM (active) | 0.467 µM (active) | 0.29 µM (active) | 1.91 µM (inactive) | 10.6 µM (inactive) | 1.26 µM (inactive) | 1.91 µM (inactive) | 0.716 µM (active) | 0.11 µM (active) | 0.261 µM (active) | 0.275 µM (active) | 0.274 µM (active) | 28.1 µM (inactive) | 0.0467 µM (active)
O=[N+]([O-])c1ccc2c(c1)=[N+]([O-])C1(CCCCC1)[N+]=2[O-] | 21.5 µM (inactive) | 20.4 µM (inactive) | 13.7 µM (inactive) | 19.3 µM (inactive) | 26.9 µM (inactive) | 15.3 µM (inactive) | 36.4 µM (inactive) | 22.1 µM (inactive) | 18 µM (inactive) | 25.5 µM (inactive) | 20.5 µM (inactive) | 18.3 µM (inactive) | 22.5 µM (inactive) | 18.8 µM (inactive) | 16.1 µM (inactive) | 6.15 µM (inactive) | 6.43 µM (inactive) | 20.4 µM (inactive) | 18.2 µM (inactive) | 3.27 µM (inactive)
COC(=O)/C(=C(\C)NC(C)=O)c1c(C(=O)OC)[nH]c2ccccc12 | > 100 µM (inactive) | > 100 µM (inactive) | > 100 µM (inactive) | > 100 µM (inactive) | > 100 µM (inactive) | > 100 µM (inactive) | > 100 µM (inactive) | > 100 µM (inactive) | > 100 µM (inactive) | > 100 µM (inactive) | > 100 µM (inactive) | > 100 µM (inactive) | > 100 µM (inactive) | > 100 µM (inactive) | > 100 µM (inactive) | > 100 µM (inactive) | > 100 µM (inactive) | > 100 µM (inactive) | > 100 µM (inactive) | > 100 µM (inactive)
c1ccc(-c2cc(-c3cc(-c4ccccn4)[nH]n3)n[nH]2)nc1 | > 100 µM (inactive) | > 100 µM (inactive) | > 100 µM (inactive) | > 100 µM (inactive) | > 100 µM (inactive) | 77.8 µM (inactive) | > 100 µM (inactive) | > 100 µM (inactive) | 77.3 µM (inactive) | 80.4 µM (inactive) | > 100 µM (inactive) | 28.6 µM (inactive) | > 100 µM (inactive) | 35.6 µM (inactive) | > 100 µM (inactive) | 33.3 µM (inactive) | 17.6 µM (inactive) | > 100 µM (inactive) | > 100 µM (inactive) | 84.3 µM (inactive)
O=C1c2ccccc2-c2nnc3c(c21)Cc1ccccc1C3 | > 10 µM (inactive) | > 10 µM (inactive) | > 10 µM (inactive) | > 10 µM (inactive) | > 10 µM (inactive) | > 10 µM (inactive) | > 10 µM (inactive) | > 10 µM (inactive) | > 10 µM (inactive) | > 10 µM (inactive) | > 10 µM (inactive) | > 10 µM (inactive) | > 10 µM (inactive) | > 10 µM (inactive) | > 10 µM (inactive) | > 10 µM (inactive) | > 10 µM (inactive) | > 10 µM (inactive) | > 10 µM (inactive) | > 10 µM (inactive)
